In the OligoGym collection:
Values joined by “and” are separate entries in the source; they are usually repeats but may differ in a detail not shown here. Identical values can stand only once. After the bases stand the sugars from the 5' end (letter, count) and the backbone: PS all phosphorothioate, else s phosphorothioate and o phosphodiester by linkage. Methylation of C is not given here. e = 2'-O-(2-methoxyethyl) (MOE); k = constrained ethyl (cEt); d = 2'-deoxy (DNA)

molecular target: IRF4; conditions: ASO, MM.1R, 1 µM

Sequence | target mRNA inhibition
AAGCATTTTATCATCC (sugars kkdddddddddkekek, PS) | 18%
AAGCTTGATAAAGGCT (sugars kkddddddddddkeke, PS) | -18%
AAGCTTGATAAAGGCT (sugars kkkdddddddddkeke, PS) | -18%
AAGTGTCTAAAGTCCC (sugars kkddddddddddkeke, PS) | 10% and 12%
AAGTTCATGTAAAGTC (sugars kddddddddddkekek, PS) | 14% and 6%
AAGTTCATGTAAAGTC (sugars kkddddddddddkeke, PS) | 28% and 20%
AAGTTCTAGTCGCGCA (sugars k3 d10 k3, PS) | 11%
AATGGATAGTTTCTCA (sugars k3 d10 k3, PS) | 21% and 36%
AATGGCGGATAGATCT (sugars k3 d10 k3, PS) | 10% and 25%
AATGTGTATTACTCTT (sugars kkdddddddddkekek, PS) | 52% and 41%
AATTCCTCCACTACCA (sugars k3 d10 k3, PS) | -41%

same assay, conditions: ASO, MM.1R, 2 µM

Sequence | target mRNA inhibition [%]
AATGGATAGTTTCTCA (sugars k3 d10 k3, PS) | 45

same assay, conditions: ASO, MM.1R, 4 µM

Sequence | target mRNA inhibition
AATGGATAGTTTCTCA (sugars k3 d10 k3, PS) | 45% and 50%

same assay, conditions: ASO, SK-MEL-28, 4 µM

Sequence | target mRNA inhibition [%]
AAAATATAACGGTGTT (sugars k3 d10 k3, PS) | 31
AAAATATCGCCCATGA (sugars k3 d10 k3, PS) | 41
AAACACAGTCTGCTGC (sugars k3 d10 k3, PS) | 35
AAACAGGAACTGACCT (sugars k3 d10 k3, PS) | 20
AAACGGACTGGAACAT (sugars k3 d10 k3, PS) | 7
AAAGAGCGCATTTCAG (sugars k3 d10 k3, PS) | 6
AAAGAGCTTGCAGGTC (sugars k3 d10 k3, PS) | 37
AAAGAGGCACCCTCCT (sugars k3 d10 k3, PS) | -38
AAAGAGGGTCACAGGT (sugars k3 d10 k3, PS) | 34
AAAGATACAAAACGGA (sugars k3 d10 k3, PS) | 38
AAAGGTTCCTGTCACC (sugars k3 d10 k3, PS) | 38
AAAGTAACTGACACGC (sugars k3 d10 k3, PS) | 67
AAAGTCCCATCGAATC (sugars k3 d10 k3, PS) | 13
AAATACGACAACTTTC (sugars k3 d10 k3, PS) | 21
AAATGAGTCGGTCACT (sugars k3 d10 k3, PS) | 55
AAATTAAAGAGCGCAT (sugars k3 d10 k3, PS) | 13
AACACCTGATCTTGCT (sugars k3 d10 k3, PS) | -10
AACAGAGACGCGGTGA (sugars k3 d10 k3, PS) | 10
AACAGGCTATCAGGAT (sugars k3 d10 k3, PS) | 17
AACAGTAAGAGGGCAG (sugars k3 d10 k3, PS) | 63
AACCAATCCCAACACT (sugars k3 d10 k3, PS) | 12
AACCAGTACAGTCCAC (sugars k3 d10 k3, PS) | 35
AACGAGGTAAATCTTC (sugars k3 d10 k3, PS) | 51

Sequence | target mRNA inhibition [%]
AACTATCTTATTCCTC (sugars k3 d10 k3, PS) | 30
AACTCATAGGTGTACA (sugars k3 d10 k3, PS) | 61
AACTCTGAGTAGACTT (sugars k3 d10 k3, PS) | 28
AAGAACTGCTGTGTGT (sugars k3 d10 k3, PS) | 12
AAGACCCCGTATCCCC (sugars k3 d10 k3, PS) | 42
AAGAGGTGCGAGTACC (sugars k3 d10 k3, PS) | 34
AAGCAACACGGGAATT (sugars k3 d10 k3, PS) | 22
AAGCCGTTCCTTTTCA (sugars k3 d10 k3, PS) | 29
AAGCTAAACTCCTAAG (sugars k3 d10 k3, PS) | 15
AAGGAGGCGGGCCTTG (sugars k3 d10 k3, PS) | 2
AAGGATGGGACCGCCC (sugars k3 d10 k3, PS) | 39
AAGTAACTGACACGCA (sugars k3 d10 k3, PS) | 23
AAGTACTTGGACAGAA (sugars k3 d10 k3, PS) | 54
AAGTCATTGCTCTTGT (sugars k3 d10 k3, PS) | 28
AATAAGCAGAAACAGC (sugars k4 d8 k4, PS) | 39
AATCAGAATGGCGAGT (sugars k3 d10 k3, PS) | 39
AATGGATAGTTTCTCA (sugars k3 d10 k3, PS) | 63
AATGTAAGTGATAGGT (sugars k3 d10 k3, PS) | 80
AATTCTCCTATGCTGA (sugars k3 d10 k3, PS) | 13
ACAAAATGGTGTGTAA (sugars k3 d10 k3, PS) | 7
ACAAGAACTGCTGTGT (sugars k3 d10 k3, PS) | 7
ACAAGTGCTAGGATTC (sugars k3 d10 k3, PS) | 67
